Experimental data taken from the supplement of paper PMC10307832.

How the values were obtained:
Experiment in all cases: relative viability (nuclei count vs DMSO), 5 days (fraction); higher = more cells survive
JZL-184 + Foretinib = compound: C1CN(CCC1C(C2=CC3=C(C=C2)OCO3)(C4=CC5=C(C=C4)OCO5)O)C(=O)OC6=CC=C(C=C6)[N+](=O)[O-] [JZL-184] + COc1cc2c(Oc3ccc(NC(=O)C4(C(=O)Nc5ccc(F)cc5)CC4)cc3F)ccnc2cc1OCCCN1CCOCC1 [Foretinib] (partner 0.25 µM)
Summary of the method: (§1)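 After 5 days of treatment, lung cancer cells in 1536-well plates were fixed and stained in a single step (final 0.05% Triton X-100, 1% formaldehyde, 1 ug/ml Hoechst) and their nuclei counted on 4× images. Treatment had been applied by pin tool the day after seeding as one drug alone or as a fixed anchor-drug dose with five library-drug doses (not always all listed) in √10 steps. Relative viability is the nuclei count of treated wells divided by that of vehicle wells, and values are medians of duplicate plates.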

JZL-184 + Tozasertib = compound: C1CN(CCC1C(C2=CC3=C(C=C2)OCO3)(C4=CC5=C(C=C4)OCO5)O)C(=O)OC6=CC=C(C=C6)[N+](=O)[O-] [JZL-184] + Cc1cc(Nc2cc(N3CCN(C)CC3)nc(Sc3ccc(NC(=O)C4CC4)cc3)n2)n[nH]1 [Tozasertib] (partner 0.1 µM)
Summary of the method: as §1

JZL-184 + Decitabine = compound: C1CN(CCC1C(C2=CC3=C(C=C2)OCO3)(C4=CC5=C(C=C4)OCO5)O)C(=O)OC6=CC=C(C=C6)[N+](=O)[O-] [JZL-184] + Nc1ncn([C@H]2C[C@H](O)[C@@H](CO)O2)c(=O)n1 [Decitabine] (partner 2 µM)
Summary of the method: as §1

JZL-184 + Navitoclax = compound: C1CN(CCC1C(C2=CC3=C(C=C2)OCO3)(C4=CC5=C(C=C4)OCO5)O)C(=O)OC6=CC=C(C=C6)[N+](=O)[O-] [JZL-184] + CC1(C)CCC(c2ccc(Cl)cc2)=C(CN2CCN(c3ccc(C(=O)NS(=O)(=O)c4ccc(N[C@H](CCN5CCOCC5)CSc5ccccc5)c(S(=O)(=O)C(F)(F)F)c4)cc3)CC2)C1 [Navitoclax] (partner 0.5 µM)
Summary of the method: as §1

JZL-184 + Dasatinib = compound: C1CN(CCC1C(C2=CC3=C(C=C2)OCO3)(C4=CC5=C(C=C4)OCO5)O)C(=O)OC6=CC=C(C=C6)[N+](=O)[O-] [JZL-184] + Cc1nc(Nc2ncc(C(=O)Nc3c(C)cccc3Cl)s2)cc(N2CCN(CCO)CC2)n1 [Dasatinib] (partner 0.075 µM)
Summary of the method: as §1

Cell Line | relative viability (JZL-184 + Foretinib; first compound 0.04 µM) | relative viability (JZL-184 + Foretinib; first compound 0.4 µM) | relative viability (JZL-184 + Foretinib; first compound 1.265 µM) | relative viability (JZL-184 + Foretinib; first compound 4 µM) | relative viability (JZL-184 + Tozasertib; first compound 0.04 µM) | relative viability (JZL-184 + Tozasertib; first compound 0.4 µM) | relative viability (JZL-184 + Tozasertib; first compound 1.265 µM) | relative viability (JZL-184 + Tozasertib; first compound 4 µM) | relative viability (JZL-184 + Decitabine; first compound 0.04 µM) | relative viability (JZL-184 + Decitabine; first compound 0.4 µM) | relative viability (JZL-184 + Decitabine; first compound 1.265 µM) | relative viability (JZL-184 + Decitabine; first compound 4 µM) | relative viability (JZL-184 + Navitoclax; first compound 0.04 µM) | relative viability (JZL-184 + Navitoclax; first compound 0.4 µM) | relative viability (JZL-184 + Navitoclax; first compound 1.265 µM) | relative viability (JZL-184 + Navitoclax; first compound 4 µM) | relative viability (JZL-184 + Dasatinib; first compound 0.04 µM) | relative viability (JZL-184 + Dasatinib; first compound 0.4 µM) | relative viability (JZL-184 + Dasatinib; first compound 1.265 µM) | relative viability (JZL-184 + Dasatinib; first compound 4 µM)
201T | 1.15 | 1.09 | 1.15 | 1.11 | 1.02 | 0.981 | 0.988 | 0.862 | 0.83 | 0.84 | 0.841 | 0.845 | 1.23 | 1.19 | 1.17 | 1.18 | 0.577 | 0.535 | 0.61 | 0.574
A549 | 1.23 | 0.942 | 1.06 | 0.976 | – | – | – | – | 0.278 | – | 0.26 | 0.273 | 1.18 | 1 | 1.24 | 1.23 | – | – | – | –
A-427 | 1.06 | 1.03 | 1.33 | 0.972 | 0.194 | 0.186 | 0.264 | 0.239 | 0.617 | 0.585 | 0.599 | 0.537 | 1.02 | 0.879 | 0.962 | 0.992 | 0.785 | 0.683 | 0.71 | 0.706
ABC-1 | 1.23 | 0.986 | 1.12 | 1.09 | 0.195 | 0.202 | 0.174 | 0.164 | 1.59 | 1.07 | 1.03 | 1.22 | – | – | – | – | 0.601 | 0.479 | 0.533 | 0.482
BEN | 0.666 | 0.772 | 0.78 | 0.846 | 0.513 | 0.536 | 0.506 | 0.456 | 0.742 | 0.537 | 0.78 | 0.767 | 0.0556 | 0.0635 | 0.0659 | 0.0756 | 0.333 | 0.349 | 0.328 | 0.337
CAL-12T | 1.22 | 1.07 | 1.07 | 1.2 | 0.336 | 0.269 | 0.336 | 0.228 | – | – | – | – | 1.33 | 1.1 | 1.15 | 1.15 | 0.515 | 0.254 | 0.488 | 0.341
COR-L23 | 0.978 | 0.881 | 1.01 | 0.902 | 0.197 | 0.181 | 0.215 | 0.143 | 0.474 | 0.414 | 0.412 | 0.397 | 1.13 | 0.87 | 1.05 | 0.968 | 0.596 | 0.425 | 0.514 | 0.407
COR-L 105 | 0.989 | 0.975 | 0.995 | 1.22 | 0.381 | 0.398 | 0.381 | 0.319 | 0.686 | 0.648 | 0.613 | 0.611 | 0.878 | 0.813 | 0.905 | 0.585 | 0.493 | 0.389 | 0.35 | 0.336
ChaGo-K-1 | 0.981 | 0.872 | 0.96 | 0.911 | 0.265 | 0.224 | 0.211 | 0.235 | 0.505 | 0.498 | 0.514 | 0.526 | 1.47 | 0.896 | 1.29 | 0.962 | 0.657 | 0.581 | 0.61 | 0.595
EKVX | 0.677 | 0.752 | 0.925 | 0.755 | 0.39 | 0.408 | 0.423 | 0.351 | 0.354 | 0.412 | 0.396 | 0.363 | 1 | 0.946 | 0.922 | 0.895 | 0.474 | 0.536 | 0.576 | 0.581
EMC-BAC-2 | 1.09 | 0.957 | 1.09 | 0.947 | 0.296 | 0.282 | 0.285 | 0.287 | 1.02 | 0.946 | 0.958 | 0.944 | 1.22 | 1.12 | 1.17 | 1.11 | 0.349 | 0.32 | 0.336 | 0.326
EPLC-272H | 0.773 | 0.668 | 0.907 | 0.712 | 0.59 | 0.277 | 0.31 | 0.198 | 0.356 | 0.386 | 0.396 | 0.384 | 1.12 | 1.11 | 1.2 | 1.25 | 0.403 | 0.41 | 0.445 | 0.325
H3255 | 0.832 | 0.684 | 0.95 | 0.987 | 0.613 | 0.65 | 0.747 | 0.623 | 0.648 | 0.63 | 0.59 | 0.646 | 0.589 | 0.492 | 0.678 | 0.522 | 0.353 | 0.346 | 0.288 | 0.38
HARA | 1.16 | 0.569 | 0.968 | 0.924 | 0.134 | 0.0806 | 0.107 | 0.108 | 0.621 | – | 0.561 | 0.468 | 1.19 | 1.06 | 1.15 | 1.14 | 0.309 | 0.16 | 0.29 | 0.28
HCC-15 | 1.25 | 1.01 | 1.11 | 1.03 | 0.521 | 0.415 | 0.407 | 0.331 | 0.625 | 0.692 | 0.647 | 0.575 | 0.754 | 0.704 | 0.759 | 0.703 | 0.647 | 0.673 | 0.677 | 0.524
HCC-44 | – | – | – | – | 1.27 | 0.805 | 1.26 | 0.983 | 1.05 | 0.942 | 0.964 | 0.99 | 1.02 | 0.953 | 0.954 | 0.876 | – | – | – | –
